Series [1] relates to CWR22R. The series is described as follows: Induction of cell cycle arrest in human 22Rv1 cells assessed as accumulation of cells at G1 phase at 4 uM incubated for 24 hrs by propidium iodide based flow cytometric analysis (Rvb= 55.28%). In kind it is functional. In general terms: In flow cytometry, cells or beads pass a laser one at a time.
Series [2] can be described thus: Metabolic stability in human liver microsomes assessed as half life in presence of NADPH incubated up to 60 mins by LC-MS/MS analysis. In kind it is ADME, Microsome. On the technique in general: Liver microsomes are a subcellular fraction often used to study metabolism.
Series [3] can be described thus: Acute toxicity in ICR mouse assessed as appearance of lesions in kidney at 5000 to 10000 mg/kg,po and measured after 14 days by H and E staining based microscopic analysis. In kind it is organism-based. The conditions noted are these: in vivo, 336 h, dose 5000-10000 mg/kg, time 14 day.
Series [4] has as its system CWR22R. The series is described as follows: Induction of cell cycle arrest in human 22Rv1 cells assessed as accumulation of cells at G1 phase at 1 uM incubated for 24 hrs by propidium iodide based flow cytometric analysis (Rvb= 55.28%). Format: functional.
The subject of series [5] is DU-145. Briefly: Induction of cell cycle arrest in human DU-145 cells assessed as accumulation of cells at G2 phase at 2 uM incubated for 24 hrs by propidium iodide based flow cytometric analysis (Rvb= 17.52%). In kind it is functional.
Series [6] deals with DU-145. The series is described as follows: Induction of apoptosis in human DU-145 cells assessed as apoptotis rate at 8 uM incubated for 24 hrs by Annexin V-FITC and PI staining based flow cytometry (Rvb= 4.36%). In kind it is functional.
The test system of series [7] is DU-145. Briefly: Induction of cell cycle arrest in human DU-145 cells assessed as accumulation of cells at S phase at 2 uM incubated for 24 hrs by propidium iodide based flow cytometric analysis (Rvb= 29.02%). Format: functional.

A word on the half-life: it is the time in which the quantity being followed falls by half.

For the compound `Cl.O=C(c1ccc(Nc2ncc(F)c(-c3ccc4scnc4c3)n2)nc1)N1CCNCC1`, the Activity is recorded as 66.73% with CWR22R [1]; “Non-Toxic” in series [3]; 60.51% with CWR22R [4]; 12.78% in the series with DU-145 [5]; 11.98% with DU-145 [6]; 26.15% with DU-145 [7]. The half-life in series [2] was found to be 1.3 h.

(Values after ChEMBL document CHEMBL5247641, “Discovery of Potent DYRK2 Inhibitors with High Selectivity, Great Solubility, and Excellent Safety Properties for the Treatment of Prostate Cancer” (J Med Chem, 2023).)
